In experiment [1] the test system is HMPV clinical isolate A2 strain TN 94-49. Kind of experiment: HMPV antiviral assay, Method 1 (LLC-MK2 cells, ATP-Lite). The experiment is classed as cell-based. The settings on record: human metapneumovirus, hMPV A2 TN/94-49, LLC-MK2 cells. The procedure, abridged:
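LLC-MK2 cells (5,000/well) infected in suspension with HMPV A2 TN 94-49 at MOI 0.005 in serum-free OptiMEM with 2 μg/mL final TPCK-trypsin, compounds in duplicate from 2 μM top, 2.5-fold, 10 points. After 7 days at 37° C, cell health by ATP-Lite luminescence normalised to virus and cell controls; EC50 from four-parameter fit.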

Experiment [2] has the same test system. Kind of experiment: HMPV antiviral assay, Method 2 (LLC-MK2 cells with CP-100-356, ATP-Lite). The format is cell-based. The settings on record: human metapneumovirus; hMPV A2 TN/94-49, LLC-MK2 cells with CP-100-356, Method 2. The procedure, abridged: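 LLC-MK2 rhesus kidney cells (5,000/well) infected in suspension with HMPV A2 TN 94-49 at MOI 0.16, in serum-free medium with final 2 μg/mL TPCK-trypsin and 2 μM CP-100-356. Compounds tested in duplicate from 200 nM, 2.5-fold, 10 points; 7 days at 37 °C. Cell health by ATP-Lite luminescence; EC50 by four-parameter fit.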

The text below walks through data of patent US20240368174A1, “Antiviral Heterocyclic Compounds” (Enanta Pharmaceuticals, Inc., priority 2023, published 2024).

Take `COc1cc(C(=O)NC[C@@](O)(c2ccccc2)c2cc3c(c(-c4cc(F)c(F)cc4F)n2)OC[C@]3(C)C(N)=O)cc2cn(C(F)F)nc12` [Example 172]: the results for the EC50 in experiment [1] and in experiment [2] were less than 500 nM and less than 200 nM, respectively.

Consider `COc1cc(C(=O)NC[C@@](O)(c2ccccc2)c2cc3c(c(-c4cc(F)c(F)cc4F)n2)OC[C@]3(C)C(N)=O)cc2cn(C3CC3)nc12` [Example 171], for which the EC50 is less than 500 nM in experiment [1] and less than 200 nM in experiment [2].

In the case of `COc1cc(C(=O)NC[C@](O)(c2cc3c(c(-c4ccc(F)c(C)c4Cl)n2)OC[C@]3(C)C(N)=O)C2CC2)cc2cn(C3CC3)nc12` [Example 69], the EC50 is less than 500 nM in experiment [1] and less than 200 nM in experiment [2].

For the molecule `COc1cc(C(=O)NC[C@@](O)(c2ccccc2)c2cc3c(c(-c4cc(Cl)ccc4F)n2)OC[C@]3(C)C(N)=O)cc2cn(C3CC3)nc12` [Example 144], the EC50 in experiment [1] is less than 500 nM; in experiment [2] it was less than 200 nM.

As to `COc1cc(C(=O)NC[C@](O)(c2cc3c(c(-c4ccc(F)c(Cl)c4Cl)n2)OC[C@]3(C)C(N)=O)C(F)(F)F)cc2cn(C(F)F)nc12` [Example 66], the EC50 in experiment [1] was less than 500 nM; in experiment [2], less than 200 nM.

Regarding `COc1cc(C(=O)NC[C@@](O)(c2ccc(C(F)(F)F)cc2)c2cc3c(c(-c4cc(Cl)c(F)cc4F)n2)OC[C@]3(C)C(N)=O)cc2cn(C3CC3)nc12` [Example 130], the EC50 in experiment [1] was greater than 500 nM; in experiment [2] it was greater than 200 nM.

As to `COc1cc(C(=O)NC[C@](O)(c2cc3c(c(-c4cc(Cl)c(F)cc4F)n2)OC[C@]3(C)C(N)=O)c2nccs2)cc2cn(C3CC3)nc12` [Example 475], the figures for the EC50 in experiment [1] and in experiment [2] were less than 500 nM and less than 200 nM, respectively.

Take `COc1cc(C(=O)NC[C@@](O)(c2ccccc2)c2cc3c(c(-c4cc(Cl)c(F)cc4F)n2)OC[C@]3(C)C(N)=O)cc2cc(Cl)cnc12` [Example 187]: the EC50 was less than 500 nM in experiment [1] and less than 200 nM in experiment [2].

As for `COc1cc(C(=O)NC[C@@](O)(c2ccc(F)cc2)c2cc3c(c(-c4ccc(F)c(Cl)c4Cl)n2)OC[C@]3(C)C(N)=O)cc2cn(C3CC3)nc12` [Example 41], the figures for the EC50 in experiment [1] and in experiment [2] were less than 500 nM and less than 200 nM, respectively.

Take `COc1cc(C(=O)NC[C@@](O)(c2ccc(F)cc2)c2cc3c(c(-c4cc(Cl)c(F)cc4F)n2)OC[C@]3(C)C(N)=O)cc2cn(C3CC3)nc12` [Example 12]: the EC50 was less than 500 nM in experiment [1] and less than 200 nM in experiment [2].

As for `CCc1cc(-c2nc([C@@](O)(CNC(=O)c3cc(OC)c4nn(C5CC5)cc4c3)C3CC3)cc3c2OC[C@]3(C)C(N)=O)ccc1F` [Example 71], the values for the EC50 in experiment [1] and in experiment [2] were greater than 500 nM and greater than 200 nM, respectively.

Regarding `COc1ccc([C@](O)(CNC(=O)c2cc(OC)c3nn(C4(F)CC4)cc3c2)c2cc3c(c(-c4cc(Cl)c(F)cc4F)n2)OC[C@]3(C)C(N)=O)cc1` [Example 166], the concentration giving a half-maximal response (EC50) in experiment [1] is less than 500 nM; in experiment [2], less than 200 nM.

As for `COc1cc(C(=O)NC[C@@](O)(c2ccccc2)c2cc3c(c(-c4cc(Cl)c(F)cc4F)n2)OC[C@]3(C)C(N)=O)cc2cn(C3(F)CC3)nc12` [Example 158], the figures for the EC50 in experiment [1] and in experiment [2] were less than 500 nM and less than 200 nM, respectively.

In the case of `Cc1cnc2c(OC(F)F)cc(C(=O)NC[C@@](O)(c3ccccc3)c3cc4c(c(-c5cc(Cl)c(F)cc5F)n3)OC[C@]4(C)C(N)=O)cc2c1` [Example 183], the EC50 is less than 500 nM in experiment [1] and less than 200 nM in experiment [2].

Turning to `[2H]C([2H])([2H])c1nc2ccc(C(=O)NC[C@@](O)(c3cccc(F)c3)c3cc4c(c(-c5ccc(F)c(Cl)c5Cl)n3)OC[C@]4(C)C(N)=O)cc2o1` [Example 281], the figures for the EC50 in experiment [1] and in experiment [2] were less than 500 nM and less than 200 nM, respectively.

As for `COc1cc(C(=O)NC[C@@](O)(c2ccccc2)c2cc3c(c(-c4ccc(F)c(Cl)c4Cl)n2)OC[C@]3(C)C(N)=O)cc2cc(C)nnc12` [Example 289], the values for the EC50 in experiment [1] and in experiment [2] were less than 500 nM and less than 200 nM, respectively.

Regarding `COc1cc(C(=O)NC[C@](O)(c2cc3c(c(-c4cc(Cl)c(F)cc4F)n2)OC[C@]3(C)C(N)=O)C2CC2)cn2cc(C3CC3)nc12` [Example 77], the EC50 was less than 500 nM in experiment [1] and less than 200 nM in experiment [2].

Regarding `Cc1cnc2c(OC3CC3)cc(C(=O)NC[C@@](O)(c3ccccc3)c3cc4c(c(-c5cc(Cl)c(F)cc5F)n3)OC[C@]4(C)C(N)=O)cc2c1` [Example 182], the EC50 is less than 500 nM in experiment [1] and less than 200 nM in experiment [2].

With `COc1cc(C(=O)NC[C@@](O)(c2cccc(F)c2)c2cc3c(c(-c4ccc(F)c(Cl)c4Cl)n2)OC[C@]3(C)C(N)=O)cc2cn(C3(F)CC3)nc12` [Example 269], the EC50 in experiment [1] was less than 500 nM; in experiment [2], less than 200 nM.

In the case of `COc1cc(C(=O)NC[C@@](O)(c2ccccn2)c2cc3c(c(-c4cc(Cl)c(F)cc4F)n2)OC[C@]3(C)C(N)=O)cc2cn(C3CC3)nc12` [Example 463], the EC50 is less than 500 nM in experiment [1] and less than 200 nM in experiment [2].

As to `COc1cc(C(=O)NC[C@@](O)(c2ccsc2)c2cc3c(c(-c4cc(F)c(F)cc4F)n2)OC[C@]3(C)C(N)=O)cc2cn(C3(F)CC3)nc12` [Example 179], the EC50 in experiment [1] was less than 500 nM; in experiment [2], less than 200 nM.

For the molecule `COc1cc(C(=O)NC[C@@](O)(c2cccc(F)c2)c2cc3c(c(-c4ccc(F)c(Cl)c4Cl)n2)OC[C@]3(C)C(N)=O)cc2oc(C3CC3)nc12` [Example 280], the EC50 is less than 500 nM in experiment [1] and less than 200 nM in experiment [2].

As for `COc1cc(C(=O)NC[C@](O)(c2cc3c(c(-c4cc(F)c(F)cc4F)n2)OC[C@]3(C)C(N)=O)C2CC(F)(F)C2)cc2cn(C(F)F)nc12` [Example 33], the concentration giving a half-maximal response (EC50) is greater than 500 nM in experiment [1] and less than 200 nM in experiment [2].

Consider `COc1cc(C(=O)NC[C@@](O)(c2cccc(F)c2)c2cc3c(c(-c4ccc(F)c(Cl)c4Cl)n2)OC[C@]3(C)C(N)=O)cc2cn(C(F)F)nc12` [Example 270], for which the values for the EC50 in experiment [1] and in experiment [2] were less than 500 nM and less than 200 nM, respectively.

Turning to `COc1cc(C(=O)NC[C@@](O)(c2cccc(F)c2)c2cc3c(c(-c4cc(Cl)c(F)cc4F)n2)OC[C@]3(C)C(N)=O)cc2cn(C3CC3)nc12` [Example 132], the values for the EC50 in experiment [1] and in experiment [2] were less than 500 nM and less than 200 nM, respectively.

`C[C@]1(C(N)=O)COc2c1cc([C@@](O)(CNC(=O)c1cc(OC3CC3)c3nn(C(F)F)cc3c1)C1CC(F)(F)C1)nc2-c1cc(F)c(F)cc1F` [Example 34]: the EC50 in experiment [1] was less than 500 nM; in experiment [2], less than 200 nM.

As to `COc1cc(C(=O)NC[C@@](O)(c2cccc(F)c2)c2cc3c(c(-c4cccc(Cl)c4Cl)n2)OC[C@]3(C)C(N)=O)cc2oc(C3CC3)nc12` [Example 292], the EC50 in experiment [1] was less than 500 nM; in experiment [2], less than 200 nM.

For the molecule `COc1cc(C(=O)NC[C@](O)(c2cc3c(c(-c4ccc(F)c(Cl)c4Cl)n2)OC[C@]3(C)C(N)=O)C(F)(F)F)cc2cn(C3CC3)nc12` [Example 65], the values for the EC50 in experiment [1] and in experiment [2] were less than 500 nM and less than 200 nM, respectively.

Regarding `COc1cc(C(=O)NC[C@@](O)(c2ccccc2)c2cc3c(c(-c4ccc(F)c(F)c4Cl)n2)OC[C@]3(C)C(N)=O)cc2cn(C(F)F)nc12` [Example 213], the values for the EC50 in experiment [1] and in experiment [2] were less than 500 nM and less than 200 nM, respectively.

With `COc1cc(C(=O)NC[C@@](O)(c2cccc(F)c2)c2cc3c(c(-c4cccc(Cl)c4Cl)n2)OC[C@]3(C)C(N)=O)cc2cn(C3(F)CC3)nc12` [Example 291], the 50% effective concentration (EC50) in experiment [1] was less than 500 nM; in experiment [2], less than 200 nM.

As to `COc1cc(C(=O)NC[C@@](O)(c2cccc(F)c2)c2cc3c(c(-c4ccc5c(c4Cl)OC(F)(F)O5)n2)OC[C@]3(C)C(N)=O)cc2cn(C3(F)CC3)nc12` [Example 275], the EC50 in experiment [1] was less than 500 nM; in experiment [2], less than 200 nM.

`COc1cc(C(=O)NC[C@@](O)(c2ccccc2)c2cc3c(c(-c4ccc(F)c(Cl)c4Cl)n2)OC[C@]3(C)C(N)=O)cc2cn(C(F)F)nc12` [Example 258]: the EC50 in experiment [1] is less than 500 nM; in experiment [2] it was less than 200 nM.

As to `COc1cc(C(=O)NC[C@@](O)(c2cccc(F)c2)c2cc3c(c(-c4cc(Cl)c(F)cc4F)n2)OC[C@]3(C)C(N)=O)cc2cc(C3CC3)nn12` [Example 133], the EC50 was less than 500 nM in experiment [1] and less than 200 nM in experiment [2].

As for `C[C@@H](O)COc1cc(C(=O)NC[C@](O)(c2cc3c(c(-c4ccc(F)c(Cl)c4F)n2)OC[C@]3(C)C(N)=O)C2CC2)cc2cn(C3CC3)nc12` [Example 38], the values for the EC50 in experiment [1] and in experiment [2] were greater than 500 nM and less than 200 nM, respectively.

As to `COc1cc(C(=O)NC[C@@](O)(c2ccccc2)c2cc3c(c(-c4ccc5c(c4)OC(F)(F)O5)n2)OC[C@]3(C)C(N)=O)cc2cn(C3CC3)nc12` [Example 18], the EC50 in experiment [1] was less than 500 nM; in experiment [2] it was less than 200 nM.

As a reminder, the EC50 is the concentration needed to bring the measured effect to its halfway point. Higher therefore signals lower potency in that assay.
